US20250043299A1, “POINT MUTATIONS THAT BOOST AROMATIC AMINO ACID PRODUCTION AND CO2 ASSIMILATION IN PLANTS” (Wisconsin Alumni Research Foundation, priority 2021, published 2025)
Where two headings read alike, the source gives them in different places.

Assays:
Format in all cases: biochemical
DHS2^A4 = target: T1, DHS2^A4 (Arabidopsis thaliana, UniProt Q00218, G222S); details: for IC50: read-out: IC50 of effector molecule on DHS2^A4
T1 construct: without the predicted plastid transit peptide (amino acid residues; 49-525, 34-507, and 52-527, respectively); made in house; host or cells: E. coli
Procedure: (§1) To generate recombinant DHS proteins the pET28a vectors carrying the A. thaliana DHS1 (AtDHS1), AtDHS2, or AtDHS3 WT sequence without the predicted plastid transit peptide (amino acid residues; 49-525, 34-507, and 52-527, respectively) were expressed in E. coli Rosetta-2 cells and purified using Ni-affinity chromatography, exactly as was conducted previously (9). To generate DHS proteins with individual sota mutations via site-directed mutagenesis, these pET28a plasmid templates were diluted by 500-fold, mixed with 0.04 U/μL Phusion DNA polymerase (Thermo Scientific), 0.2 mM deoxynucleoside triphosphates (dNTPs), 1× Phusion reaction buffer (Thermo Scientific), and 0.5 μM forward and reverse mutagenesis primers (Table 10). The PCR reaction was run using the following protocol: 98° C. for 30 s followed by 20 cycles of 10 s at 98° C., 20 s at 70° C., 4.5 min at 72° C. with a final extension at 72° C. for 10 min. The PCR products were purified using a QIAquick Gel Extraction Kit (QIAGEN), treated with FastDigest DpnI (Thermo Scientific) to digest methylated plasmid template DNA for 20 min at 37° C., and transformed into E. coli cells. The mutagenized pET28a plasmids were sequenced to confirm that no errors were introduced during the mutagenesis process.
(§2) The DHS enzyme assays were conducted using the colorimetric method that we recently described (9). Briefly, the enzyme solution (7.7 μl) containing 50 mM Hepes (pH 7.4) was preincubated with an effector molecule(s) at room temperature for 15 min. For assays using recombinant protein and enzyme fractions isolated from plant leaves, 0.01 to 0.1 μg and approximately 50 μg of proteins were used, respectively. After adding 0.5 μl of 0.1 M dithiothreitol, the samples were further incubated at room temperature for 15 min. During these incubations, the substrate solution containing 50 mM Hepes (pH 7.4), 2 mM MnCl2, 4 mM E4P, and 4 mM PEP at final concentration was preheated at 37° C. The enzyme reaction was started by adding 6.8 μl of the substrate solution, then incubated at 37° C. for 30 min, and terminated by adding 30 μl of 0.6 M trichloroacetic acid. After a brief centrifugation, 5 μl of 200 mM NaIO4 (sodium meta-periodate) in 9 N H3PO4 was added to oxidize the enzymatic product and to incubate at 25° C. for 20 min. To stop the oxidation reaction, 20 μl of 0.75 M NaAsO2 (sodium arsenite), which was dissolved in 0.5 M Na2SO4 and 0.05 M H2SO4, was added and immediately mixed. After 5 min of incubation at room temperature, one-third of the sample solution was transferred to a new tube to be mixed with 50 μl of 40 mM thiobarbituric acid and incubated at 99° C. for 15 min in a thermal cycler. The mixture was added to 600 μl of cyclohexanone in eight-strip solvent-resistant plastic tubes, mixed vigorously, and centrifuged at 4500 g for 3 min to separate water- and cyclohexanone-based layers for the extraction off the developed pink chromophore. The absorbance of the pink supernatant was read at 549 nm with the microplate reader (Infinite 200 PRO, TECAN) to calculate DAHP production with the molar extinction coefficient at 549 nm (ε=549 nm) of 4.5×10^4 M^−1 cm^−1. Reaction mixtures with boiled enzymes were run in parallel and used as negative controls to estimate the background signal.

[1] = target: T2, Arabidopsis thaliana DHS1 (SEQ ID NO:1) variant DHS1^B4 (sotaB4), G244R (Arabidopsis thaliana, UniProt P29976, G244R); assay: DHS enzyme assay with effector, DHS1 sotaB4
T2 construct: without the predicted plastid transit peptide (amino acid residues; 49-525, 34-507, and 52-527, respectively); made in house; host or cells: E. coli
Procedure: as §1, §2

[2] = target: Arabidopsis thaliana DHS3 (SEQ ID NO:3) variant DHS3^H1 (sotaH1), G114R (Arabidopsis thaliana, UniProt Q9SK84, G114R); assay: DHS enzyme assay with effector, DHS3 sotaH1
Procedure: as §1
(§3) The DHS enzyme assays were conducted using the colorimetric method that we recently described (9). Briefly, the enzyme solution (7.7 μl) containing 50 mM Hepes (pH 7.4) was preincubated with an effector molecule(s) at room temperature for 15 min. For assays using recombinant protein and enzyme fractions isolated from plant leaves, 0.01 to 0.1 μg and approximately 50 μg of proteins were used, respectively. After adding 0.5 μl of 0.1 M dithiothreitol, the samples were further incubated at room temperature for 15 min. […] The absorbance of the pink supernatant was read at 549 nm with the microplate reader (Infinite 200 PRO, TECAN) to calculate DAHP production with the molar extinction coefficient at 549 nm (ε=549 nm) of 4.5×10^4 M^−1 cm^−1. […]

DHS2^F1 = target: T3, DHS2^F1 (Arabidopsis thaliana, UniProt Q00218, L136F); assay: DHS enzyme assay, recombinant DHS2^F1; details: for IC50: read-out: IC50 of effector molecule on DHS2^F1
T3 construct: without the predicted plastid transit peptide (amino acid residues; 49-525, 34-507, and 52-527, respectively); made in house; host or cells: E. coli
Procedure: as §1, §2

[3] = target: T4, Arabidopsis thaliana DHS2 (SEQ ID NO:2) variant DHS2^A11 (sotaA11), A224T (Arabidopsis thaliana, UniProt Q00218, A224T); assay: DHS enzyme assay with effector, DHS2 sotaA11
T4 construct: without the predicted plastid transit peptide (amino acid residues; 49-525, 34-507, and 52-527, respectively); made in house; host or cells: E. coli
Procedure: as §1, §3

[4] = target: T5, Arabidopsis thaliana DHS2 (SEQ ID NO:2) variant DHS2^A4 (sotaA4), G222S (Arabidopsis thaliana, UniProt Q00218, G222S); assay: biochemical
T5 construct: without the predicted plastid transit peptide (amino acid residues; 49-525, 34-507, and 52-527, respectively); made in house; host or cells: E. coli
Procedure: as §1, §2

[5] = target: T6, Arabidopsis thaliana DHS2 (SEQ ID NO:2) variant DHS2^F1 (sotaF1), L136F (Arabidopsis thaliana, UniProt Q00218, L136F); assay: DHS enzyme assay with effector, DHS2 sotaF1
T6 construct: without the predicted plastid transit peptide (amino acid residues; 49-525, 34-507, and 52-527, respectively); made in house; host or cells: E. coli
Procedure: as §1, §3

DHS1^B4 = target: T7, DHS1^B4 (Arabidopsis thaliana, UniProt P29976, G244R); assay: DHS enzyme assay, recombinant DHS1^B4; details: recombinant enzyme; for IC50: read-out: IC50 of effector molecule on DHS1^B4
T7 construct: without the predicted plastid transit peptide (amino acid residues; 49-525, 34-507, and 52-527, respectively); made in house; host or cells: E. coli
Procedure: as §1, §2

[6] = target: Arabidopsis thaliana DHS3 (AtDHS3), wild type (DHS3^WT), SEQ ID NO:3 (Arabidopsis thaliana, UniProt Q9SK84); assay: DHS enzyme assay with effector, Arabidopsis DHS3 WT
Procedure: as §1, §3

DHS2^A11 = target: T8, DHS2^A11 (Arabidopsis thaliana, UniProt Q00218, A224T); assay: DHS enzyme assay, recombinant DHS2^A11; details: for IC50: read-out: IC50 of effector molecule on DHS2^A11
T8 construct: without the predicted plastid transit peptide (amino acid residues; 49-525, 34-507, and 52-527, respectively); made in house; host or cells: E. coli
Procedure: as §1, §2

[7] = target: Arabidopsis thaliana DHS3 (SEQ ID NO:3) variant DHS3^G1 (sotaG1), A240T (Arabidopsis thaliana, UniProt Q9SK84, A240T); assay: DHS enzyme assay with effector, DHS3 sotaG1
Procedure: as §1, §3

[8] = DHS3^WT, 4 mM E4P, 4 mM PEP, pH 7.4, 37° C., read-out: IC50

Arabidopsis thaliana DHS3 (SEQ ID NO:3) variant DHS3^G1 (sotaG1), A240T, sequence (Q9SK84 entry or part of it A240T): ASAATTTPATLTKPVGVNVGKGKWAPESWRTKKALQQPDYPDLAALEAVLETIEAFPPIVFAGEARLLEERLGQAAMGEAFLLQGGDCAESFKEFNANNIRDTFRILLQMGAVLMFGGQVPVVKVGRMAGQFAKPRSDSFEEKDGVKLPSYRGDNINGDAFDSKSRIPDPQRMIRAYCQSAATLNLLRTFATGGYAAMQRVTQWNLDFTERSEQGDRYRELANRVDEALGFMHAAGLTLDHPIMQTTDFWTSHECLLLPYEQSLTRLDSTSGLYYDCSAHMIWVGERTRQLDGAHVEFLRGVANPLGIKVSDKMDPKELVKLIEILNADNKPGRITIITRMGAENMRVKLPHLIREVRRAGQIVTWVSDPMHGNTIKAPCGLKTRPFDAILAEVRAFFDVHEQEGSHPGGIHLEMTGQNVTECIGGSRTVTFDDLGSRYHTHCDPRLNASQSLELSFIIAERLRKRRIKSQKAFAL
Arabidopsis thaliana DHS3 (SEQ ID NO:3) variant DHS3^H1 (sotaH1), G114R, sequence (Q9SK84 entry or part of it G114R): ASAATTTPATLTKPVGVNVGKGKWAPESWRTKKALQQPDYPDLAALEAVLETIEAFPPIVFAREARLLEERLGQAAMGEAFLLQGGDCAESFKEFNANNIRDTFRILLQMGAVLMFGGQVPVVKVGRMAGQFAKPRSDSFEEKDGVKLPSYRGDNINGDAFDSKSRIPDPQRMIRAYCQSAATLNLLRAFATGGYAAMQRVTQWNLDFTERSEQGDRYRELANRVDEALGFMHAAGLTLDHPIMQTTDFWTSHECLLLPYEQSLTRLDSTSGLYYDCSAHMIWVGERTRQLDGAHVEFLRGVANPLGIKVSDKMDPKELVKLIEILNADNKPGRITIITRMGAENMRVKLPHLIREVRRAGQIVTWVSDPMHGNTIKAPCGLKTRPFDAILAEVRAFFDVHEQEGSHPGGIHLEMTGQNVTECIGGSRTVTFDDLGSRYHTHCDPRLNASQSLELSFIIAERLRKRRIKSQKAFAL
T8 sequence (Q00218 34-507 A224T): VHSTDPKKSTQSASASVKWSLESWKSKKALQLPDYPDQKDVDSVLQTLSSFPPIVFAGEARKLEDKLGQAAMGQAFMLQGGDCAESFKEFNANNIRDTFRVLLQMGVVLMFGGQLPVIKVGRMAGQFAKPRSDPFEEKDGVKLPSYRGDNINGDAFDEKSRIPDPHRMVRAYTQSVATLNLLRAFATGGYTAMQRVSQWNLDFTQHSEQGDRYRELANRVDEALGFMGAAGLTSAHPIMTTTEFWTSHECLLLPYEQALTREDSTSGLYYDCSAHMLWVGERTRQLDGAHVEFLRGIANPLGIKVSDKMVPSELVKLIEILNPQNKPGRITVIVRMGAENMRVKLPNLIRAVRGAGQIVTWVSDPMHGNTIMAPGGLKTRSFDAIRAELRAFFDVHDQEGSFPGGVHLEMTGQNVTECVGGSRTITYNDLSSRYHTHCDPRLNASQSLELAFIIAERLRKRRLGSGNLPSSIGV
T4 sequence (Q00218 34-507 A224T): as above
Arabidopsis thaliana DHS3 (AtDHS3), wild type (DHS3^WT), SEQ ID NO:3, sequence (Q9SK84 entry or part of it): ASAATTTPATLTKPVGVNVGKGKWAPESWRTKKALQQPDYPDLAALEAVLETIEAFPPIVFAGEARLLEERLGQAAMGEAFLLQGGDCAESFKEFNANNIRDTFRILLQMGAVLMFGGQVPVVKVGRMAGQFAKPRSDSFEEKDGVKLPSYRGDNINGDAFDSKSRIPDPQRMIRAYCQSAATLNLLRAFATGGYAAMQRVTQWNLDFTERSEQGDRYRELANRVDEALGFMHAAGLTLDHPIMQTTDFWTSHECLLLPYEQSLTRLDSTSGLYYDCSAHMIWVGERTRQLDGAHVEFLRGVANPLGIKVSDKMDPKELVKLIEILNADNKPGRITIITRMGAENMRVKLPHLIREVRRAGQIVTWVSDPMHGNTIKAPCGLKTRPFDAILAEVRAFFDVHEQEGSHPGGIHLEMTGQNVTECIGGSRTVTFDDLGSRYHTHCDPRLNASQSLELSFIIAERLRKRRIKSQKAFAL
T2 sequence (P29976 49-525 G244R): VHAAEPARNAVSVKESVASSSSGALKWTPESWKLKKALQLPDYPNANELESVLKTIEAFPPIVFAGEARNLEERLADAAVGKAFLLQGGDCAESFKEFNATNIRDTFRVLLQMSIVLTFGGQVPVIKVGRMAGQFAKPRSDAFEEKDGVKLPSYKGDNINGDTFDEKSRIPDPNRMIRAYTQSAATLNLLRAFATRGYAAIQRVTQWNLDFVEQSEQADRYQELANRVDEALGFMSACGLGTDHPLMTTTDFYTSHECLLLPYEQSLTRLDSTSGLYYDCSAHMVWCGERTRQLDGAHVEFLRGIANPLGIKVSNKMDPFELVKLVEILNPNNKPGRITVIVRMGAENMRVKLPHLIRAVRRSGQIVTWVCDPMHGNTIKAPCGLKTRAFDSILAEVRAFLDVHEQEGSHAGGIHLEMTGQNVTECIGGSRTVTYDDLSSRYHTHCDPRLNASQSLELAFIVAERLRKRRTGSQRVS
T7 sequence (P29976 49-525 G244R): as above
T5 sequence (Q00218 34-507 G222S): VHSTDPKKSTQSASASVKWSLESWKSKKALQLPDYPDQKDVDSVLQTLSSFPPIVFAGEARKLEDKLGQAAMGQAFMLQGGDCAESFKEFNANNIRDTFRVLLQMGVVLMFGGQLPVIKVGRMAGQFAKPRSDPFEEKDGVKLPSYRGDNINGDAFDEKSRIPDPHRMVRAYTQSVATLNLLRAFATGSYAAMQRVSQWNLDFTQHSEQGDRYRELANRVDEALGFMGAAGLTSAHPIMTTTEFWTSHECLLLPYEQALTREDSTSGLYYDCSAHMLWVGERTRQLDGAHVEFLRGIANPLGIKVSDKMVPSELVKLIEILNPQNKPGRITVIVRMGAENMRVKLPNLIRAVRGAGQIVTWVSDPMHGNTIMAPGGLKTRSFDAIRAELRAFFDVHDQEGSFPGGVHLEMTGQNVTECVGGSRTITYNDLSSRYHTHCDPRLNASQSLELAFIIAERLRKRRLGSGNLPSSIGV
T1 sequence (Q00218 34-507 G222S): as above
T6 sequence (Q00218 34-507 L136F): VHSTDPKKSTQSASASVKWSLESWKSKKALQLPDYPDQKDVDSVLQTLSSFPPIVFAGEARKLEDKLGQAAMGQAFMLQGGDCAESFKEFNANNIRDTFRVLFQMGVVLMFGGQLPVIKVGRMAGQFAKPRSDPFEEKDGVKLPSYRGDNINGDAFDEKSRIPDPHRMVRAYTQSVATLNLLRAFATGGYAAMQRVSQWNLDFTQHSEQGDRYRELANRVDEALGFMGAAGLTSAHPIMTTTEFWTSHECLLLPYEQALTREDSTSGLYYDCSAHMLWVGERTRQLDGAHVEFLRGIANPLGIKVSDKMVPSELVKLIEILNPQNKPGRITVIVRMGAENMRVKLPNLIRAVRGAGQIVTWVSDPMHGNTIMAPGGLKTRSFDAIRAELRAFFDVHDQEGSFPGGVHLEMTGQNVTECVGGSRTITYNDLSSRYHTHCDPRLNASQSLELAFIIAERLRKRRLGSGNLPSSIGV

Row | SMILES | IC50 (DHS2^A4; recombinant enzyme) [µM] | IC50 [1] [µM] | IC50 [2] [µM] | IC50 (DHS2^F1; recombinant enzyme) [µM] | IC50 [3] [µM] | IC50 [4] [µM] | IC50 [5] [µM] | IC50 (DHS1^B4) [µM] | IC50 [6] [µM] | IC50 (DHS2^A11; recombinant enzyme) [µM] | IC50 [7] [µM] | IC50 [6, 8] [µM] | inhibition of DHS2^A4 activity (DHS2^A4; effector up to 1 mM) | IC50 of effector molecule on DHS2^A4 (DHS2^A4; recombinant enzyme) | inhibition of DHS2^F1 activity (DHS2^F1; effector up to 1 mM) | IC50 of effector molecule on DHS2^F1 (DHS2^F1; recombinant enzyme) | IC50 of effector molecule on DHS1^B4 (DHS1^B4) | inhibition of DHS2^A11 activity (DHS2^A11; effector up to 1 mM) | IC50 of effector molecule on DHS2^A11 (DHS2^A11; recombinant enzyme)
1 | O=C(O)Cc1cc(O)ccc1O [HGA, homogentisate] | 212 | 2990 | 405 | 788 | 242 | 212 | 788 | 2990 | 102 | 242 | 375 | – | – | – | – | – | – | – | –
2 | O=C(O)C(=O)Cc1ccc(O)cc1 [HPP, 4-Hydroxyphenylpyruvate] | 143 | 835 | 903 | 321 | 58.6 | 143 | 321 | 835 | – | 58.6 | 915 | 516 | – | – | – | – | – | – | –
3 | O=C(O)C(=O)Cc1c[nH]c2ccccc12 [IPA, indole-3-pyruvate] | 73.4 | 5000 | 108 | 74 | 90.6 | 73.4 | 74 | 5000 | – | 90.6 | 273 | 25.3 | – | – | – | – | – | – | –
4 | N[C@@H](Cc1c[nH]c2ccccc12)C(=O)O [Trp, tryptophan] | – | – | – | – | – | – | – | – | – | – | – | – | not inhibited | Not inhibited | not inhibited | Not inhibited | Not inhibited | not inhibited | Not inhibited
